Test results from US10526271B2, “Compositions and methods related to half salts of herbicidal carboxylic acids” (Dow AgroSciences LLC, priority 2015, dated 2020).

Columns and labels:
[1] = tested on: common lambsquarters (CHEAL); test: Greenhouse postemergence weed control, common lambsquarters; type: in vivo; conditions: 800 g ae/ha, no adjuvant, 21 DAA
Description: (§1) Plant material was propagated in the Indianapolis greenhouses under warm temperature conditions of 26 to 28° C. and a 16 hour day length and 8 hour dark cycle. Natural light was supplemented with 1000-watt metal halide overhead lamps with an average illumination of 500 μE m−2 s−1 photosynthetic active radiation for 16 consecutive hours each day. Seeds of each species were planted in 10 cm square pots containing a potting soil, Metro-Mix 360®. Metro-mix 360® consists of Canadian sphagnum peat moss, coarse perlite, bark ash, a starter nutrient charge (with gypsum), a slow-release nitrogen fertilizer and dolomitic limestone. Plants were top watered prior to treatment and sub-irrigated after treatment. Plant material was fertilized three times a week with Jack's fertilizer solution (Jack's Professional 15-5-15 4 Ca 2 Mg fertilizer manufactured by JR PETERS INC.; 6656 Grant Way; Allentown, Pa. 18106). Appropriate amounts of herbicides were weighed and diluted with Indianapolis tap water.
(§2) All treatments were applied to selected plant species with a track sprayer (Generation III Research Sprayer manufactured by DeVries Manufacturing in Hollandale, Minn., USA) located in building 306, laboratory E1-483, at the Dow AgroSciences facility in Indianapolis, Ind. The track sprayer was calibrated to deliver 140 L/ha at 40 psi ([…]) pressure utilizing an 8002E even, flat fan nozzle. Track sprayer speed was set at 1.6 mph ([…]). Applications were made to replicates of each species in a randomized complete block design, with 4 replications per treatment.
(§3) All species were evaluated at 15 or 21 days after application (DAA). The treated plants and control plants were evaluated using a rating scale of 0-100%, wherein 0% indicates no injury or control of the vegetation and 100% indicates complete death of the plants.

redroot pigweed (AMARE) = test: Greenhouse postemergence weed control, redroot pigweed; type: in vivo; conditions: 800 g ae/ha, no adjuvant, 21 DAA
Description: as §1, §2, §3

[2] = Volatility by thermogravometric analysis (TGA) weight loss at elevated temperature; type: physicochemical; conditions: 120° C., linear region of weight loss curve
Description: The volatility of the 2,4-D potassium half salt (as a concentrated aqueous suspension) was compared to that of 2,4-D acid (as technical solid), 2,4-D ethylhexyl ester (EHE, as technical liquid), and 2,4-D dimethylammonium (DMA) and 2,4-D dimethylethanolammonium (DMEA) salts (both as concentrated aqueous solutions) by thermogravometric analysis (TGA) weight loss at elevated temperature. Each of the 2,4-D samples was added in turn (approximately 25-30 mg) to the reservoir cup of a TA Instruments Model 2050 TGA instrument. The temperature was maintained at 120° C. and the weight loss was recorded as a function of time.
For the water-containing samples, rapid weight loss was observed during water removal followed by a linear region (constant rate of loss). Linear curve fitting was applied in this region of the curve to determine rate of 2,4-D loss in μg/min.

sicklepod (CASOB) = test: Greenhouse postemergence weed control, sicklepod; type: in vivo; conditions: 800 g ae/ha, no adjuvant, 21 DAA
Description: as §1, §2, §3

common ragweed (AMBTR) = test: Greenhouse postemergence weed control, common ragweed; type: in vivo; conditions: 800 g ae/ha, no adjuvant, 21 DAA
Description: as §1, §2, §3

Row | SMILES | % Control CHEAL [1] [%] | % Control AMARE (redroot pigweed (AMARE)) [%] | Rate of Loss [2] [µg/min] | % Control CASOB (sicklepod (CASOB)) [%] | % Control AMBTR (common ragweed (AMBTR)) [%]
1 | C[N+](C)(C)CCO.O=C([O-])COc1ccc(Cl)cc1Cl [2,4-D Choline] | 74 | 95 | – | – | –
2 | O=C(O)COc1ccc(Cl)cc1Cl [2,4-D Acid, 2,4-dichlorophenoxyacetic acid] | – | – | 2.29 | – | –
3 | CCCCC(CC)COC(=O)COc1ccc(Cl)cc1Cl (stereo not drawn) [2,4-D EHE, 2,4-D ethylhexyl ester] | – | – | 11 | – | –
4 | CN(C)CCO.O=C(O)COc1ccc(Cl)cc1Cl [2,4-D DMEA, 2,4-D dimethylethanolammonium] | – | – | 0.905 | – | –
5 | O=C(O)COc1ccc(Cl)cc1Cl.O=C([O-])COc1ccc(Cl)cc1Cl.[Na+] [2,4-D Na half-salt, 2,4-D Sodium Half Salt] | 85 | 92 | – | 100 | 100
6 | N.O=C(O)COc1ccc(Cl)cc1Cl [2,4-D NH4] | 92 | 95 | – | 100 | 99
7 | N.O=C(O)COc1ccc(Cl)cc1Cl.O=C(O)COc1ccc(Cl)cc1Cl [2,4-D NH4 half-salt] | 74 | 91 | – | 100 | 100
8 | O=C(O)COc1ccc(Cl)cc1Cl.O=C([O-])COc1ccc(Cl)cc1Cl.[K+] [2,4-D K Half Salt, 2,4-D Potassium Half Salt] | 84 | 91 | 0.132 | 100 | 100
9 | CNC.O=C(O)COc1ccc(Cl)cc1Cl [2,4-D DMA, 2,4-D dimethylammonium] | 73 | 91 | 1.5 | 95 | 100
